Data published in paper PMC5983740, “Tryptophan-Containing Dual Neuroprotective Peptides: Prolyl Endopeptidase Inhibition and Caenorhabditis elegans Protection from β-Amyloid Peptide Toxicity” (International Journal of Molecular Sciences, 2018).
Ends that are not written are not given here.

Tests used:
[1] = system: C. elegans wild-type strain N2; assay: C. elegans oxidative stress assay (H2O2); assay type: in vivo, Caenorhabditis elegans; details: 2 mM H2O2 for 5 h
Description: (§1) Wild-type Bristol strain N2 and the transgenic strain CL4176 (smg-1^ts [pAF29(myo-3/Aβ1–42/let UTR) + pRF4(rol-6(su10069))]) were obtained from the Caenorhabditis Genetics Center (College of Biological Sciences, University of Minnesota, Saint Paul, MN, USA) and were used for oxidative stress experiments and paralysis assays, respectively. C. elegans strains were routinely propagated on Nematode Growth Medium (NGM) plates with Escherichia coli strain OP50 as a food source at 20 °C (N2) or at 16 °C (CL4176). Worms were synchronized by isolating eggs from gravid adults at 20 °C (N2) or at 16 °C (CL4176), and eggs were hatched overnight in NGM plates.
(§2) In the oxidative and paralysis experiments, worms were fed with the different compounds from egg to adult stages, and transferred to new plates every two days.
For oxidative stress experiments, strain N2 was egg-synchronized in NGM plates (control medium) and NGM supplemented with 0.1 µg/mL peptides or 0.1 mg/mL vitamin C (positive control). The viability of C. elegans was assessed after 2 mM hydrogen peroxide (H2O2)-induced oxidative stress for 5 h. Experiments were carried out in triplicate.

[2] = target: T1, prolyl endopeptidase (PEP) (Elizabethkingia meningoseptica, UniProt P27028); assay: biochemical; assay type: biochemical; details: for PEP Residual Activity (%) / PEP inhibition (in words) / PEP inhibitory activity (% inhibition): peptide 1 mg/mL; for PEP Residual Activity (%): % of control without peptide (100%), pH 7, 30 °C, 30 min, mean ± SD of three replicates, SD; for PEP inhibition (in words): P-containing peptides; for PEP inhibition: highest concentration tested, 3.3 mg/mL
T1 construct: purchased Seikagaku Corporation (Tokyo, Japan)
T1 sequence (P27028 21-705): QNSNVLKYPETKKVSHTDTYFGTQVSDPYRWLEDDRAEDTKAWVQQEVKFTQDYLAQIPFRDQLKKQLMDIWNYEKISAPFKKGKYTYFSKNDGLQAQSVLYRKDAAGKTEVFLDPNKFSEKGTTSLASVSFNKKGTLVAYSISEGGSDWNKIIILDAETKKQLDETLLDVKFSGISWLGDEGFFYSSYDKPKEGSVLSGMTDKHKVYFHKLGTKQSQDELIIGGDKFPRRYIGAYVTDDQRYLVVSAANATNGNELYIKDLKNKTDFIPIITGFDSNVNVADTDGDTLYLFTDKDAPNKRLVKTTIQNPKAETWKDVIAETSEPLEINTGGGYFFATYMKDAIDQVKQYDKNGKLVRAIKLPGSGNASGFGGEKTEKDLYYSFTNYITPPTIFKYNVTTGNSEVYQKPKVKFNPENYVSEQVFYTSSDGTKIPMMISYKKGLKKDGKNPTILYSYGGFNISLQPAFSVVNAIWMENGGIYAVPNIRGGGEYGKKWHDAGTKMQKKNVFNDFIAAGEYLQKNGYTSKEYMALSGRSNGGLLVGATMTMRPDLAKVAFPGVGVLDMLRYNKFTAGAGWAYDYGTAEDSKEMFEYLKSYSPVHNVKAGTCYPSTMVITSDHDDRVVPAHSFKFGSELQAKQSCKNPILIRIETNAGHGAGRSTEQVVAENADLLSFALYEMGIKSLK
Description: The PEP activity was determined as previously described with minor modifications. Enzyme assays were performed in 96-well microplates using Z-Gly-Pro-p-nitroanilide as a substrate and measuring the increase in absorbance at 410 nm due to the release of p-nitroaniline. Ten µL of tenfold peptide or hydrolysate solution in 100 mM sodium phosphate buffer, pH 7 ([…] for LFHs), 30 µL of a 0.1 U/mL PEP solution in 100 mM sodium phosphate buffer (pH 7) and 35 µL of the same sodium phosphate buffer were pre-incubated at 30 °C for 5 min, and the mixture incubated with 25 µL of 2 mM Z-Gly-Pro-p-nitroanilide in 40% 1,4-dioxane for 30 min at the same temperature. The reaction was finished by the addition of 100 µL 10% Triton X-100 in 1 M sodium acetate buffer (pH 4), and the absorbance measured at 410 nm in a microplate reader. Data are expressed as the percentage of PEP residual activity with respect to a control without peptide (100%).
The IC50 value of a peptide was defined as the concentration required to inhibit 50% of the PEP activity and the value for each experiment was estimated by non-linear regression of the experimental data to a four-parameter logistic curve using the software package SigmaPlot v 13.0 (SPSS Inc., Chicago, IL, USA).

[3] = system: transgenic C. elegans strain CL4176 engineered to express human Aβ1–42; assay: C. elegans paralysis assay (Aβ1–42-induced paralysis); assay type: in vivo, Caenorhabditis elegans
Description: as §1, §2
Paralysis is induced in strain CL4176 by the expression of a muscle-specific Aβ1–42 which depends on up-shifting temperature from 16 to 25 °C [7, 8]. For paralysis experiments, strain CL4176 maintained at 16 °C was egg-synchronized in plates containing NGM (control medium) and NGM with peptides (0.02–5 µg/mL). Transgene expression was induced by up-shifting the temperature from 16 to 25 °C, starting 24 h after egg laying and maintained for 24 h. The worms were incubated at 20 °C until all the worms in the experiment became paralyzed. Paralysis was scored 24 h after induction. Paralysis in induced worms was compared with non-induced worms (maintained at 16 °C until the end of the paralysis assay). Experiments were carried out at least in duplicate.

[4] = target: T1, prolyl endopeptidase (PEP); design: method as in 2 sources, ref 29 = [29]; PMID 26574880; doi:10.1039/C5FO01262G; 29. Hsieh C.-H. Wang T.-Y. Hung C.-C. Hsieh Y.-L. Hsu K.-C. Isolation of prolyl endopeptidase inhibitory peptides from a sodium caseinate hydrolysate Food Funct. 2016 7 565 573 10.1039/C5FO01262G 2657 ||| ref 31 = [31]; PMID 23675471; doi:10.1371/journal.pone.0063283; 31. Martorell P. Bataller E. Llopis S. Gonzalez N. Alvarez B. Monton F. Ortiz P. Ramon D. Genoves S. A cocoa peptide protects Caenorhabditis elegans from oxidative stress and β-amyloid peptide toxicit; details: cocoa hydrolysate peptide; cited from earlier work
[5] = 0.1 µg/mL, average paralysis curve of the independent trials
[6] = dose 0.1 µg/mL, trial 1, hours after temperature up-shift
[7] = dose 0.1 µg/mL, trial 2, hours after temperature up-shift
[8] = dose 0.1 µg/mL, trial 3, hours after temperature up-shift

Molecule: O=C1O[C@H]([C@@H](O)CO)C(O)=C1O [vitamin C, reference compound]
- worm survival after oxidative stress (in words) ([1]; vitamin C 10 µg/mL (Figure 4; method says 0.1 mg/mL), positive control): significant protection

Molecule: Ac-RKWFHLW-NH2 [PACEI48L, synthetic heptapeptide Ac-RKWFHLW-NH2]
- PEP Residual Activity (%) [2]: 61.4 ± 4.4 (a) %

Molecule: Ac-RKWFLHW-NH2 [PACEI49L, synthetic heptapeptide Ac-RKWFLHW-NH2]
- PEP Residual Activity (%) [2]: 46.8 ± 9.1 (b) %

Molecule: Ac-RKWHFLW-NH2 [PACEI50L]
- decrease of paralyzed worms compared with control fed nematodes at 49 h ([3]; 0.1 µg/mL, average curves): 25.2%
- % of non-paralyzed worms at onset paralysis [3, 5]: 99%
- Onset Paralysis, time [3, 5]: 41 h
- Paralyzed Worms (percentage at 49 h) [3, 5]: 42.3%
- effect on paralysis (in words) ([3]; dose 0.02 µg/mL, data not shown): did not provide any effect
- % of non-paralyzed worms at onset paralysis ([3]; dose 0.1 µg/mL, trial 1): 98.4%
- Paralyzed Worms at 49 h ([3]; dose 0.1 µg/mL, trial 1): 48.7%
- Onset Paralysis, time [3, 6]: 41 h
- % of non-paralyzed worms at onset paralysis ([3]; dose 0.1 µg/mL, trial 2): 99.1%
- Paralyzed Worms at 49 h ([3]; dose 0.1 µg/mL, trial 2): 21.9%
- Onset Paralysis, time [3, 7]: 43 h
- % of non-paralyzed worms at onset paralysis ([3]; dose 0.1 µg/mL, trial 3): 97.5%
- Paralyzed Worms at 49 h ([3]; dose 0.1 µg/mL, trial 3): 56.2%
- Onset Paralysis, time [3, 8]: 43 h
- % of non-paralyzed worms at onset paralysis ([3]; dose 0.5 µg/mL, trial 1): 96.7%
- Paralyzed Worms at 49 h ([3]; dose 0.5 µg/mL, trial 1): 41.3%
- Onset Paralysis, time ([3]; dose 0.5 µg/mL, trial 1, hours after temperature up-shift): 45 h
- % of non-paralyzed worms at onset paralysis ([3]; dose 0.5 µg/mL, trial 2): 99.2%
- Paralyzed Worms at 49 h ([3]; dose 0.5 µg/mL, trial 2): 41.7%
- Onset Paralysis, time ([3]; dose 0.5 µg/mL, trial 2, hours after temperature up-shift): 43 h
- worm survival after oxidative stress (in words) ([1]; peptide 0.1 µg/mL, triplicate): none of them was able to increase the worm survival
- PEP Residual Activity (%) [2]: 6.4 ± 2.3 (c) %

Molecule: Ac-RKWHLFW-NH2 [PACEI51L, synthetic heptapeptide Ac-RKWHLFW-NH2]
- PEP Residual Activity (%) [2]: 71.6 ± 4.9 (a) %

Molecule: Ac-RKWLFHW-NH2 [PACEI52L, synthetic heptapeptide Ac-RKWLFHW-NH2]
- PEP Residual Activity (%) [2]: 65.9 ± 3.6 (a) %

Molecule: Ac-RKWLHFW-NH2 [PACEI53L, synthetic heptapeptide Ac-RKWLHFW-NH2]
- PEP Residual Activity (%) [2]: 71.5 ± 4.5 (a) %

Molecule: DNYDNSAGKWWVT [Peptide 13L]
- IC50 (PEP inhibition) [4]: 190 µg/mL

Molecule: DRDQY [PKH1, synthetic peptide identified in proteinase K lactoferrin hydrolysate, DRDQY]
- PEP Residual Activity (%) [2]: 102.7 ± 7.0%

Molecule: DRDQYELL [PKH7, synthetic peptide identified in proteinase K lactoferrin hydrolysate, DRDQYELL]
- PEP Residual Activity (%) [2]: 115.3 ± 4.2 %

Molecule: ENLPEKA [PKH3, synthetic peptide identified in proteinase K lactoferrin hydrolysate, ENLPEKA]
- PEP Residual Activity (%) [2]: 97.1 ± 0.1%
- PEP inhibition (in words) [2]: failed to inhibit PEP

Molecule: GGRPTYEEY [PKH5, synthetic peptide identified in proteinase K lactoferrin hydrolysate, …]
- PEP Residual Activity (%) [2]: 96.9 ± 2.1%
- PEP inhibition (in words) [2]: failed to inhibit PEP

Molecule: GILRPY [PKH6, synthetic peptide identified in proteinase K lactoferrin hydrolysate, GILRPY]
- PEP Residual Activity (%) [2]: 97.2 ± 4.0%
- PEP inhibition (in words) [2]: failed to inhibit PEP

Molecule: GILRPYL [PKH10, synthetic peptide identified in proteinase K lactoferrin hydrolysate, GILRPYL]
- PEP Residual Activity (%) [2]: 103.9 ± 0.8%
- PEP inhibition (in words) [2]: failed to inhibit PEP

Molecule: NEGLTW [PKH8, LF-derived hexapeptide NEGLTW]
- PEP inhibitory activity (% inhibition) [2]: 12%
- PEP Residual Activity (%) [2]: 87.1 ± 1.0 %

Molecule: NIPMGL [PKH9, synthetic peptide identified in proteinase K lactoferrin hydrolysate, NIPMGL]
- PEP Residual Activity (%) [2]: 95.5 ± 3.4%
- PEP inhibition (in words) [2]: failed to inhibit PEP

Molecule: RIPSKV [PKH4, synthetic peptide identified in proteinase K lactoferrin hydrolysate, RIPSKV]
- PEP Residual Activity (%) [2]: 109.6 ± 2.2 %
- PEP inhibition (in words) [2]: failed to inhibit PEP

Molecule: RKAHFLA [PACEI50L-v2, PACEI50L derivative, both W residues at position 3 and 7 replaced with A, RKAHFLA]
- final percentage of non-paralyzed worms, lower than the control conditions by ([3]; 0.1 µg/mL, average curves): 5.6%
- % of non-paralyzed worms at onset paralysis [3, 5]: 92%
- Onset Paralysis, time [3, 5]: 41 h
- Paralyzed Worms (percentage at 49 h) [3, 5]: 73.1%
- % of non-paralyzed worms at onset paralysis ([3]; dose 0.1 µg/mL, trial 1): 91.3%
- Paralyzed Worms at 49 h ([3]; dose 0.1 µg/mL, trial 1): 74.9%
- Onset Paralysis, time [3, 6]: 41 h
- % of non-paralyzed worms at onset paralysis ([3]; dose 0.1 µg/mL, trial 2): 90.7%
- Paralyzed Worms at 49 h ([3]; dose 0.1 µg/mL, trial 2): 75.9%
- Onset Paralysis, time [3, 7]: 41 h
- % of non-paralyzed worms at onset paralysis ([3]; dose 0.1 µg/mL, trial 3): 94.7%
- Paralyzed Worms at 49 h ([3]; dose 0.1 µg/mL, trial 3): 68.4%
- Onset Paralysis, time [3, 8]: 41 h
- PEP inhibition [2]: did not exhibit a clear inhibitory effect

Molecule: RKWHFLA [PACEI50L-v1]
- % of non-paralyzed worms at onset paralysis [3, 5]: 94%
- Onset Paralysis, time [3, 5]: 41 h
- Paralyzed Worms (percentage at 49 h) [3, 5]: 62.8%
- % of non-paralyzed worms at onset paralysis ([3]; dose 0.1 µg/mL, trial 1): 98.0%
- Paralyzed Worms at 49 h ([3]; dose 0.1 µg/mL, trial 1): 62.5%
- Onset Paralysis, time [3, 6]: 41 h
- % of non-paralyzed worms at onset paralysis ([3]; dose 0.1 µg/mL, trial 2): 91.7%
- Paralyzed Worms at 49 h ([3]; dose 0.1 µg/mL, trial 2): 71.9%
- Onset Paralysis, time [3, 7]: 41 h
- % of non-paralyzed worms at onset paralysis ([3]; dose 0.1 µg/mL, trial 3): 93.3%
- Paralyzed Worms at 49 h ([3]; dose 0.1 µg/mL, trial 3): 53.7%
- Onset Paralysis, time [3, 8]: 41 h
- PEP inhibition [2]: 20%

Molecule: SVDGKEDLIA [PKH11-v1]
- IC50 [2]: 2870 µM

Molecule: SVDGKEDLIW [PKH11]
- IC50 [2]: 1810 µM
- PEP inhibitory activity (% inhibition) [2]: 22%
- PEP Residual Activity (%) [2]: 78.0 ± 3.1 %
